Laboratory results as given in PubChem BioAssay (NCI).
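Interpolation was linear, between the two tested concentrations surrounding the appropriate level; five concentrations were tested over 48 hours in 96-well plates. The concentration for 50% growth inhibition is given as GI50. TGI: concentration producing complete growth inhibition.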

How the values were obtained:
Experiment in all cases: NCI anticancer screen, dose series, 48 h
NCI-H522 lung = test system: NCI-H522 lung
NCI/ADR-RES ovarian = test system: NCI/ADR-RES ovarian
SF-539 CNS = test system: SF-539 CNS
UACC-257 melanoma = test system: UACC-257 melanoma
A549 NSCLC = test system: A549 NSCLC
CAKI-1 renal = test system: CAKI-1 renal
OVCAR-5 ovarian = test system: OVCAR-5 ovarian
OVCAR-4 ovarian = test system: OVCAR-4 ovarian
786-0 renal = test system: 786-0 renal
HCT-116 colon = test system: HCT-116 colon
MDA-MB-435 = test system: MDA-MB-435
K-562 leukemia = test system: K-562 leukemia
SW-620 colon = test system: SW-620 colon
CCRF-CEM leukemia = test system: CCRF-CEM leukemia
KM12 colon = test system: KM12 colon
SNB-75 CNS = test system: SNB-75 CNS
NCI-H460 lung = test system: NCI-H460 lung
HT29 colon = test system: HT29 colon
HOP-92 NSCLC = test system: HOP-92 NSCLC
NCI-H23 lung = test system: NCI-H23 lung
UACC-62 melanoma = test system: UACC-62 melanoma
HCC-2998 colon = test system: HCC-2998 colon
OVCAR-3 ovarian = test system: OVCAR-3 ovarian
SF-268 CNS = test system: SF-268 CNS
A498 renal = test system: A498 renal
HS 578T breast = test system: HS 578T breast
MCF7 breast = test system: MCF7 breast
SNB-19 CNS = test system: SNB-19 CNS
UO-31 renal = test system: UO-31 renal
RPMI-8226 leukemia = test system: RPMI-8226 leukemia
MALME-3M melanoma = test system: MALME-3M melanoma
T-47D breast = test system: T-47D breast
RXF 393 renal = test system: RXF 393 renal
NCI-H226 lung = test system: NCI-H226 lung
SK-MEL-5 melanoma = test system: SK-MEL-5 melanoma
SF-295 CNS = test system: SF-295 CNS
OVCAR-8 ovarian = test system: OVCAR-8 ovarian
BT-549 breast = test system: BT-549 breast
U251 CNS = test system: U251 CNS
SN12C renal = test system: SN12C renal
M14 melanoma = test system: M14 melanoma
LOX IMVI melanoma = test system: LOX IMVI melanoma
MOLT-4 leukemia = test system: MOLT-4 leukemia
SK-MEL-2 melanoma = test system: SK-MEL-2 melanoma
HCT-15 colon = test system: HCT-15 colon
SK-MEL-28 melanoma = test system: SK-MEL-28 melanoma
MDA-MB-468 breast = test system: MDA-MB-468 breast
EKVX NSCLC = test system: EKVX NSCLC
TK-10 renal = test system: TK-10 renal
SK-OV-3 ovarian = test system: SK-OV-3 ovarian
MDA-MB-231 breast = test system: MDA-MB-231 breast
IGROV1 ovarian = test system: IGROV1 ovarian
COLO 205 colon = test system: COLO 205 colon
HL-60(TB) leukemia = test system: HL-60(TB) leukemia
DU-145 prostate = test system: DU-145 prostate
PC-3 prostate = test system: PC-3 prostate
ACHN renal = test system: ACHN renal

`COc1ccc(NC(=O)CSc2nnc(-c3ccc(-c4nc5ccccc5[nH]4)cc3)o2)cc1` gave a GI50 (NCI-H522 lung) of 1.72 µM, a TGI (NCI-H522 lung) of 3.4 µM and a GI50 (NCI/ADR-RES ovarian) of 9.32 µM. The TGI (NCI/ADR-RES ovarian) was over 100 µM, the GI50 (SF-539 CNS) was 1.79 µM and the TGI (SF-539 CNS) was 3.42 µM. The GI50 (UACC-257 melanoma) was 1.92 µM, the TGI (UACC-257 melanoma) was 3.93 µM and the GI50 (A549 NSCLC) was 1.97 µM. The TGI (A549 NSCLC) was 4.22 µM, the GI50 (CAKI-1 renal) was 1.89 µM and the TGI (CAKI-1 renal) was 3.83 µM. The GI50 (OVCAR-5 ovarian) was 2.28 µM, the TGI (OVCAR-5 ovarian) was 5.23 µM and the GI50 (OVCAR-4 ovarian) was 2.5 µM. It also gave a TGI (OVCAR-4 ovarian) of 6.64 µM, a GI50 (786-0 renal) of 1.92 µM and a TGI (786-0 renal) of 3.63 µM. For the same compound, the GI50 (HCT-116 colon) was 2.38 µM, the TGI (HCT-116 colon) was 5.9 µM and the GI50 (MDA-MB-435) was 2.08 µM. The TGI (MDA-MB-435) was 4.55 µM, the GI50 (K-562 leukemia) was 3.65 µM and the TGI (K-562 leukemia) was over 100 µM. The GI50 (SW-620 colon) was 2.34 µM, the TGI (SW-620 colon) was 6.39 µM and the GI50 (CCRF-CEM leukemia) was 3.03 µM. The TGI (CCRF-CEM leukemia) was over 100 µM, the GI50 (KM12 colon) was 3.49 µM and the TGI (KM12 colon) was 13.3 µM. It also gave a GI50 (SNB-75 CNS) of 1.83 µM, a TGI (SNB-75 CNS) of 3.89 µM and a GI50 (NCI-H460 lung) of 2.01 µM. For the same compound, the TGI (NCI-H460 lung) was 4.32 µM, the GI50 (HT29 colon) was 1.82 µM and the TGI (HT29 colon) was 3.42 µM. The GI50 (HOP-92 NSCLC) was 1.77 µM, the TGI (HOP-92 NSCLC) was 3.79 µM and the GI50 (NCI-H23 lung) was 1.93 µM. The TGI (NCI-H23 lung) was 3.84 µM, the GI50 (UACC-62 melanoma) was 1.63 µM and the TGI (UACC-62 melanoma) was 3.04 µM. The GI50 (HCC-2998 colon) was 12.1 µM, the TGI (HCC-2998 colon) was 34.6 µM and the GI50 (OVCAR-3 ovarian) was 2.29 µM. It also gave a TGI (OVCAR-3 ovarian) of 4.56 µM, a GI50 (SF-268 CNS) of 2.02 µM and a TGI (SF-268 CNS) of 4.2 µM. For the same compound, the GI50 (A498 renal) was 2.1 µM, the TGI (A498 renal) was 5.75 µM and the GI50 (HS 578T breast) was 2.56 µM. The TGI (HS 578T breast) was 7.29 µM, the GI50 (MCF7 breast) was 2.35 µM and the TGI (MCF7 breast) was 6.4 µM. It also gave a GI50 (SNB-19 CNS) of 2.04 µM, a TGI (SNB-19 CNS) of 4.04 µM and a GI50 (UO-31 renal) of 2.8 µM. The TGI (UO-31 renal) was 10.4 µM, the GI50 (RPMI-8226 leukemia) was 3.42 µM and the TGI (RPMI-8226 leukemia) was over 100 µM. It also gave a GI50 (MALME-3M melanoma) of 1.69 µM, a TGI (MALME-3M melanoma) of 3.14 µM and a GI50 (T-47D breast) of 3.1 µM. It also gave a TGI (T-47D breast) of 9.51 µM, a GI50 (RXF 393 renal) of 1.84 µM and a TGI (RXF 393 renal) of 3.56 µM. For the same compound, the GI50 (NCI-H226 lung) was 1.92 µM, the TGI (NCI-H226 lung) was 4.17 µM and the GI50 (SK-MEL-5 melanoma) was 1.91 µM. The TGI (SK-MEL-5 melanoma) was 3.94 µM, the GI50 (SF-295 CNS) was 1.79 µM and the TGI (SF-295 CNS) was 3.34 µM. For the same compound, the GI50 (OVCAR-8 ovarian) was 1.85 µM, the TGI (OVCAR-8 ovarian) was 3.66 µM and the GI50 (BT-549 breast) was 1.94 µM. It also gave a TGI (BT-549 breast) of 4.09 µM, a GI50 (U251 CNS) of 1.83 µM and a TGI (U251 CNS) of 3.36 µM. It also gave a GI50 (SN12C renal) of 1.84 µM, a TGI (SN12C renal) of 3.59 µM and a GI50 (M14 melanoma) of 2.3 µM. For the same compound, the TGI (M14 melanoma) was 5.27 µM, the GI50 (LOX IMVI melanoma) was 1.81 µM and the TGI (LOX IMVI melanoma) was 3.38 µM. For the same compound, the GI50 (MOLT-4 leukemia) was 3.23 µM, the TGI (MOLT-4 leukemia) was over 100 µM and the GI50 (SK-MEL-2 melanoma) was 2.07 µM. It also gave a TGI (SK-MEL-2 melanoma) of 4.45 µM, a GI50 (HCT-15 colon) of 2.3 µM and a TGI (HCT-15 colon) of 5.67 µM. The GI50 (SK-MEL-28 melanoma) was 1.76 µM, the TGI (SK-MEL-28 melanoma) was 3.21 µM and the GI50 (MDA-MB-468 breast) was 2.51 µM. For the same compound, the TGI (MDA-MB-468 breast) was 6.44 µM, the GI50 (EKVX NSCLC) was 1.98 µM and the TGI (EKVX NSCLC) was 4.21 µM. It also gave a GI50 (TK-10 renal) of 3.09 µM, a TGI (TK-10 renal) of 10.8 µM and a GI50 (SK-OV-3 ovarian) of 2.36 µM. The TGI (SK-OV-3 ovarian) was 4.94 µM, the GI50 (MDA-MB-231 breast) was 1.89 µM and the TGI (MDA-MB-231 breast) was 3.45 µM. The GI50 (IGROV1 ovarian) was 2.17 µM, the TGI (IGROV1 ovarian) was 5.06 µM and the GI50 (COLO 205 colon) was 4.51 µM. The TGI (COLO 205 colon) was 19.3 µM, the GI50 (HL-60(TB) leukemia) was 5.04 µM and the TGI (HL-60(TB) leukemia) was over 100 µM. The GI50 (DU-145 prostate) was 2.77 µM, the TGI (DU-145 prostate) was 7.62 µM and the GI50 (PC-3 prostate) was 2.06 µM. It also gave a TGI (PC-3 prostate) of 3.96 µM, a GI50 (ACHN renal) of 2.4 µM and a TGI (ACHN renal) of 5.86 µM.
